Assay results taken from patent US20260200920A1, “SUBSTITUTED AMINOPYRIDINE COMPOUNDS FOR USE AS AKT1 INHIBITORS” (Atavistik Bio, Inc., priority 2023, published 2026).

Legend:
[1] = molecular target: T1, human recombinant kinase full-length AKT1 E17K (Homo sapiens, UniProt P31749, E17K); assay: AKT1 E17K kinase assay (TR-FRET, Lance); assay type: biochemical; settings: 0.6 nM AKT1 E17K, 50 nM Ulight-CREBtide, either 50 μM ATP or 2 mM ATP, 60 min at RT
T1 construct: Purified human recombinant kinase full-length AKT1 E17K was expressed in insect cells; made in house; host or cells: insect cells
T1 sequence (P31749 whole entry E17K): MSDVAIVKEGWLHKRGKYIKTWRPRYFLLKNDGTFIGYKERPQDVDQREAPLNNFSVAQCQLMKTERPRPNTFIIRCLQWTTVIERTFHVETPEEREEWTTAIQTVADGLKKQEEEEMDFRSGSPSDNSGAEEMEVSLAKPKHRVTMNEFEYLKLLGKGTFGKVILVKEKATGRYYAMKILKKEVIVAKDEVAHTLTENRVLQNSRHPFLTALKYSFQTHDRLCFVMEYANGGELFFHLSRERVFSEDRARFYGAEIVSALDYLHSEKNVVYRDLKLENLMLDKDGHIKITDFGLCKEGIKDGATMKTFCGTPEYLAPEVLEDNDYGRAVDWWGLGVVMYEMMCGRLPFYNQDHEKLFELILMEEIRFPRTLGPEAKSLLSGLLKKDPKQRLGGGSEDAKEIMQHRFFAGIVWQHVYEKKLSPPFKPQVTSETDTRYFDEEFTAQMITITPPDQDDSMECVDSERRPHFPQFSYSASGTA
In short: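 IC50 came from a 10-point, 4-parameter fit of the 665/620 TR-FRET ratio read with Eu-anti-phospho-CREB (Ser133). Reaction at RT for 60 min after 15 min compound preincubation, using 0.6 nM PDPK1-activated full-length AKT1 E17K (insect-cell), 50 nM Ulight-CREBtide, ATP at 50 μM or 2 mM, HEPES pH 7.5, 1% DMSO.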

[2] = molecular target: T2, human recombinant kinase full-length wildtype AKT1 (Homo sapiens, UniProt P31749); assay: AKT1 kinase assay (wildtype, TR-FRET, Lance); assay type: biochemical; settings: 0.6 nM wildtype AKT1, 50 nM Ulight-CREBtide, either 50 μM ATP or 2 mM ATP, 60 min at RT
T2 construct: Purified human recombinant kinase full-length wildtype AKT1 was expressed in insect cells; made in house; host or cells: insect cells
T2 sequence (P31749 whole entry): as the sequence (P31749 whole entry E17K) above, with K17E counted along it
In short: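 TR-FRET 665/620 ratio quantified phospho-CREBtide formed by PDPK1-activated full-length human AKT1 (0.6 nM, insect-cell-derived) over 60 min at RT with 50 nM ULight-CREBtide and either 50 μM or 2 mM ATP. Compounds were preincubated 15 min with enzyme; IC50 came from 4-parameter fits of 10-point duplicates.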

`Cc1ccccc1-c1ccc2nc(-c3cccnc3N)n(-c3ccc(C4CN(C[C@H]5CC[C@H](C(=O)O)CC5)C4)cc3C)c2n1` [Compound I-211] was tested, and the IC50 [1] was at least 2 µM and the IC50 [2] was under 20 µM.
In the case of `Nc1ncccc1-c1nc2ccc(-c3ccccc3)nc2n1-c1ccc(NC(=O)N2CCC(C(=O)O)C2)cc1` (stereo not shown) [Compound I-52, 1-[[4-[2-(2-amino-3-pyridyl)-5-phenyl-imidazo[4,5-b]pyridin-3-yl]phenyl]carbamoyl]pyrrolidine-3-carboxylic acid], the IC50 [1] is reported as under 0.5 µM and the IC50 [2] is reported as under 20 µM.
